# Reference: the supplement of paper PMC10307832
# Key:
# Assay in all cases: relative viability (nuclei count vs DMSO), 5 days (fraction); higher = more cells survive
# Metformin + OSI-027 = compound: CN(C)C(=N)NC(=N)N [Metformin] + COc1cccc2cc(-c3nc([C@H]4CC[C@H](C(=O)O)CC4)n4ncnc(N)c34)[nH]c12 [OSI-027] (partner 0.5 µM)
# Summary of the method: (§1)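 Each reported value is a median over duplicate plates. It expresses relative viability: treated-well nuclei count divided by vehicle-well nuclei count. Lung cancer cell lines in 1536-well plates were dosed by pin tool a day after seeding, alone with one drug or with a fixed anchor-drug dose plus five library-drug doses (not always all listed) in √10 steps, and nuclei were counted after 5 days.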
# Apatinib + Luminespib = compound: N#CC1(c2ccc(NC(=O)c3cccnc3NCc3ccncc3)cc2)CCCC1 [Apatinib] + CCNC(=O)c1noc(-c2cc(C(C)C)c(O)cc2O)c1-c1ccc(CN2CCOCC2)cc1 [Luminespib] (partner 0.01 µM)
# Summary of the method: as §1
# Apatinib + Lapatinib = compound: N#CC1(c2ccc(NC(=O)c3cccnc3NCc3ccncc3)cc2)CCCC1 [Apatinib] + CS(=O)(=O)CCNCc1ccc(-c2ccc3ncnc(Nc4ccc(OCc5cccc(F)c5)c(Cl)c4)c3c2)o1 [Lapatinib] (partner 2 µM)
# Summary of the method: as §1
# Apatinib + AZD7762 = compound: N#CC1(c2ccc(NC(=O)c3cccnc3NCc3ccncc3)cc2)CCCC1 [Apatinib] + NC(=O)Nc1cc(-c2cccc(F)c2)sc1C(=O)N[C@H]1CCCNC1 [AZD7762] (partner 0.2 µM)
# Summary of the method: as §1
Cell Line,relative viability (Metformin + OSI-027; first compound 31.62 µM),relative viability (Metformin + OSI-027; first compound 100 µM),relative viability (Metformin + OSI-027; first compound 316.23 µM),relative viability (Metformin + OSI-027; first compound 1000 µM),relative viability (Apatinib + Luminespib; first compound 0.08 µM),relative viability (Apatinib + Luminespib; first compound 0.253 µM),relative viability (Apatinib + Luminespib; first compound 0.8 µM),relative viability (Apatinib + Luminespib; first compound 2.53 µM),relative viability (Apatinib + Luminespib; first compound 8 µM),relative viability (Apatinib + Lapatinib; first compound 0.08 µM),relative viability (Apatinib + Lapatinib; first compound 0.253 µM),relative viability (Apatinib + Lapatinib; first compound 0.8 µM),relative viability (Apatinib + Lapatinib; first compound 2.53 µM),relative viability (Apatinib + Lapatinib; first compound 8 µM),relative viability (Apatinib + AZD7762; first compound 0.08 µM),relative viability (Apatinib + AZD7762; first compound 0.253 µM),relative viability (Apatinib + AZD7762; first compound 0.8 µM),relative viability (Apatinib + AZD7762; first compound 2.53 µM),relative viability (Apatinib + AZD7762; first compound 8 µM),relative viability (Metformin + OSI-027; first compound 10 µM)
201T,0.955,0.875,0.881,0.517,0.983,1.02,1.12,1,0.855,1.07,0.976,0.983,0.975,1.01,0.691,0.701,0.565,0.5,0.471,–
A549,–,–,–,–,–,–,–,–,–,1.14,1.05,1.04,0.944,0.842,–,–,–,–,–,–
A-427,0.493,0.44,0.458,0.492,0.924,0.779,0.928,0.72,0.8,1.06,1.1,1.06,0.984,0.982,0.71,0.761,0.665,0.572,0.527,0.45
ABC-1,0.529,0.466,0.266,0.22,–,0.907,0.646,0.554,0.553,1.03,1.45,1.42,1.14,0.993,–,0.687,0.882,0.767,0.727,0.661
BEN,0.275,0.3,0.314,0.263,0.478,0.348,0.385,0.336,0.229,0.604,0.67,0.764,0.578,0.591,0.529,0.67,0.694,0.449,0.621,0.271
CAL-12T,0.94,0.581,0.39,0.605,0.565,0.315,0.261,0.882,0.661,0.736,0.608,0.778,0.575,0.589,0.618,0.53,0.603,0.51,0.468,0.678
COR-L23,0.68,0.571,0.605,0.782,0.687,0.643,0.702,0.628,0.509,0.919,1.16,1.05,0.792,0.722,–,–,–,–,–,0.644
COR-L 105,0.895,0.736,0.773,0.521,0.796,0.789,0.896,0.697,0.67,0.358,0.342,0.354,0.336,0.33,–,–,–,–,–,0.736
Calu-6,–,–,–,–,–,–,–,–,–,1.13,1.1,0.988,0.919,0.789,–,–,–,–,–,–
ChaGo-K-1,0.599,0.6,0.543,0.597,0.618,0.679,0.661,0.519,0.564,–,–,–,–,–,0.913,0.853,0.776,0.711,0.617,0.595
EBC-1,–,–,–,–,–,–,–,–,–,0.194,0.197,0.235,0.231,0.237,–,–,–,–,–,–
EKVX,0.77,0.645,–,0.681,0.841,0.857,0.851,0.821,0.816,0.186,0.131,0.229,0.186,0.188,0.641,0.572,0.656,0.593,0.574,0.623
EMC-BAC-2,0.397,0.365,0.399,0.356,1.22,1.29,1.14,1.09,0.987,0.954,0.886,0.878,0.877,0.807,1.1,1.07,1.06,0.91,0.998,0.419
EPLC-272H,0.269,0.262,0.293,0.335,0.898,–,0.92,0.329,0.201,1.13,0.874,1.11,0.708,1.05,0.334,0.24,0.206,0.174,0.17,0.294
H3255,0.654,0.623,0.457,0.611,0.791,0.782,0.811,0.644,0.829,0.235,0.227,0.231,0.311,0.286,0.824,0.882,0.851,0.736,0.718,0.477
HARA,0.6,0.529,0.47,0.515,0.928,0.875,0.419,0.6,0.678,0.755,0.895,0.674,0.731,0.623,0.344,0.38,0.184,–,0.128,–
HCC-15,0.812,0.655,0.586,0.678,0.364,0.241,0.302,0.317,0.316,0.928,0.859,0.808,0.742,0.827,1.13,1.23,1.12,1.15,1.05,–
HCC-44,0.921,0.696,0.632,0.491,0.98,1.21,1.03,1.02,0.751,1.04,0.993,0.991,0.945,0.941,1.03,1.01,0.983,0.96,0.947,1.14
HCC-78,0.49,0.362,0.426,0.422,–,–,–,–,–,0.568,0.731,0.942,0.829,0.748,0.553,0.766,0.666,0.539,0.638,0.466
